Measurements published in patent publication US11261498B2, “Methods for diagnosing and treating cancer” (priority 2011, dated 2022).

Tests used:
[1] = tested on: advanced, treatment-refractory NSCLC; conditions: phase III, monotherapy, patients with advanced; cited from earlier work
[2] = tested on: NSCLC cell lines; assay: Erlotinib sensitivity (IC50, Celltiter-Glo cell viability) of NSCLC cell lines versus ERBB2 methylation; type: cell-based; conditions: in vitro, 72 hrs, 3 nM TGFα, IC50 values only in FIG. 5
Description: After 72 hrs, cell viability was measured using the Celltiter-Glo Luminescent Cell Viability Assay (Promega).

[3] = tested on: pancreatic cancer; conditions: phase III, first-line, in combination with gemcitabine; cited from earlier work
[4] = tested on: NSCLC; conditions: phase III, first-line, in combination with standard chemotherapy; cited from earlier work

| SMILES | disease progression [1] | survival [1] | worsening of lung cancer-related symptoms [1] | correlation of ERBB2 hypomethylation with erlotinib sensitivity [2] | survival [3] | survival [4] |
| --- | --- | --- | --- | --- | --- | --- |
| C#Cc1cccc(Nc2ncnc3cc(OCCOC)c(OCCOC)cc23)c1 [erlotinib, [6,7-bis(2-methoxyethoxy)-4-quinazolin-4-yl]-(3-ethynylphenyl) amine] | delayed disease progression | significantly prolonged survival | delayed worsening of lung cancer-related symptoms | strongly correlated | did improve survival | did not improve survival |
| COc1cc2ncnc(Nc3ccc(F)c(Cl)c3)c2cc1OCCCN1CCOCC1 [gefitinib] |  |  |  |  |  | did not improve survival |
